Test results reported in patent US7488832B2, “Azolylacylguanidines as β-secretase inhibitors” (Wyeth, priority 2005, dated 2009).

Target: human BACE1 (Homo sapiens, UniProt P56817)
Experiment: Fluorescent kinetic assay, human BACE1 (FRET peptide substrate WABC-6);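 note: fluorescence monitored at excitation 320 nm and emission 420 nm over 30 min, with the substrate cleavage rate taken as the linear slope of the signal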
Format: biochemical
Conditions: not given

Sequence of human BACE1 (P56817 46-501): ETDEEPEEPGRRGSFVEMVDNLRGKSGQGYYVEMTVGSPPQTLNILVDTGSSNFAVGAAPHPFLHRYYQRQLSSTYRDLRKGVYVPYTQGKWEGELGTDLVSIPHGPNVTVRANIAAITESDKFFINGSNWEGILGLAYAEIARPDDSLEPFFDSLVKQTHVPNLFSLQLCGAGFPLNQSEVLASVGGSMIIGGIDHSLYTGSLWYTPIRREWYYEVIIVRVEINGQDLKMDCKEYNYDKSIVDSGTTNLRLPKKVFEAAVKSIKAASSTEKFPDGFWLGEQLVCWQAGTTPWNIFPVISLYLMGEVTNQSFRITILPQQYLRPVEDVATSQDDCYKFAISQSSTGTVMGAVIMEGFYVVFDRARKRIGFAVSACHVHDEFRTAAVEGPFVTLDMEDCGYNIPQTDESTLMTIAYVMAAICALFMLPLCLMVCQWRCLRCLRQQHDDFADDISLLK

Molecule | IC50 [µM]
N/C(=N/C(=O)Cn1c(-c2ccccc2)ccc1C12CC3CC(CC(C3)C1)C2)NCCCO [Example 395] | 0.11 to 1

Same assay, conditions: fluorescent kinetic assay, 25 μM substrate WABC-6, pH 4.5, room temperature; read-out: IC50 (μM) BACE 1

Molecule | IC50 [µM]
4-n-propyl-piperidine [Example 185] | 1.1 to 5
Cc1ccc(-c2ccc(-c3ccc(Cl)s3)n2CC(=O)N=C(N)N)cc1 [Example 110] | 1.1 to 5
COc1ccc(OC)c(-c2ccc(-c3ccc(Oc4ccccc4)cc3)n2CC(=O)N=C(N)N)c1 [Example 133] | 1.1 to 5
COc1ccc(OC)c(-c2ccc(-c3ccc(Oc4ccc(C(C)=O)cc4)cc3)n2CC(=O)N=C(N)N)c1 [Example 135] | 0.11 to 1
COc1cccc(-c2ccc(-c3ccc4ccccc4c3)n2CC(=O)N=C(N)N)c1 [Example 147] | 1.1 to 5
NC(N)=NC(=O)Cn1c(-c2ccccc2)ccc1-c1ccc(C(=O)N2CCSC2)cc1 [Example 169] | 1.1 to 5
CC1CCN(C(=O)c2ccc(-c3ccc(-c4ccccc4)n3CC(=O)N=C(N)N)cc2)CC1 [Example 170] | 1.1 to 5
Cc1cccc(C(=O)Nc2ccc(-c3ccc(-c4ccccc4)n3CC(=O)N=C(N)N)cc2)c1 [Example 236] | 1.1 to 5
NC(N)=NC(=O)Cn1c(-c2ccccc2)ccc1-c1ccc(NC(=O)COc2ccccc2)cc1 [Example 242] | 1.1 to 5
NC(N)=NC(=O)Cn1c(-c2ccccc2)ccc1-c1ccc(NS(=O)(=O)c2ccc(Cl)s2)cc1 [Example 258] | 1.1 to 5
C=CCCOc1ccc(-c2ccc(-c3ccccc3)n2CC(=O)N=C(N)N)cc1 [Example 273] | 1.1 to 5
CC[C@H](C)COc1ccc(-c2ccc(-c3ccccc3)n2CC(=O)N=C(N)N)cc1 [Example 283] | 1.1 to 5
NC(=NC(=O)Cn1c(-c2ccc(Oc3ccccc3)cc2)ccc1-c1ccccc1Cl)NCCCO [Example 310] | 0.11 to 1
C=CCCCOc1ccc(-c2ccc(-c3ccccc3Cl)n2CC(=O)NC(=N)NCCCO)cc1 [Example 313] | 0.11 to 1
N#CCCCCOc1ccc(-c2ccc(-c3ccccc3Cl)n2CC(=O)N=C(N)NCCCO)cc1 [Example 314] | 0.01 to 0.1
C=CCCCCOc1ccc(-c2ccc(-c3ccccc3Cl)n2CC(=O)N=C(N)NCCCO)cc1 [Example 315] | 0.11 to 1
N/C(=N/C(=O)Cn1c(-c2ccc(OCCC3OCCO3)cc2)ccc1-c1ccccc1Cl)NCCCO [Example 316] | 0.11 to 1
CCCCCOc1ccc(-c2ccc(-c3ccccc3Cl)n2CC(=O)/N=C(/N)NCCCO)cc1 [Example 317] | 0.11 to 1
N#Cc1ccc(-c2ccc(-c3ccccc3)n2CC(=O)N=C(N)NCCCO)cc1 [Example 318] | 1.1 to 5
CC(C)c1ccc(-c2ccc(-c3ccccc3)n2CC(=O)N=C(N)NCCCO)cc1 [Example 319] | 0.11 to 1
CCCc1ccc(-c2ccc(-c3ccccc3)n2CC(=O)N=C(N)NCCCO)cc1 [Example 320] | 0.11 to 1
CCCCc1ccc(-c2ccc(-c3ccccc3)n2CC(=O)N=C(N)NCCCO)cc1 [Example 321] | 0.11 to 1
CC(C)Cc1ccc(-c2ccc(-c3ccccc3)n2CC(=O)N=C(N)NCCCO)cc1 [Example 322] | 0.11 to 1
CCCCCc1ccc(-c2ccc(-c3ccccc3)n2CC(=O)N=C(N)NCCCO)cc1 [Example 323] | 0.11 to 1
CCCCOc1ccc(-c2ccc(-c3ccccc3)n2CC(=O)N=C(N)NCCCO)cc1 [Example 324] | 0.11 to 1
NC(=NC(=O)Cn1c(-c2ccccc2)ccc1-c1ccc(-c2ccccc2)cc1)NCCCO [Example 325] | 0.11 to 1
NC(=NC(=O)Cn1c(-c2ccccc2)ccc1-c1ccc(C2CCCCC2)cc1)NCCCO [Example 327] | 0.11 to 1

Molecule | IC50 [µM]
NC(=NC(=O)Cn1c(-c2ccccc2)ccc1-c1ccc(Oc2ccccc2)cc1)NCCCO [Example 328] | 0.11 to 1
CC(=O)c1ccc(Oc2ccc(-c3ccc(-c4ccccc4)n3CC(=O)N=C(N)NCCCO)cc2)cc1 [Example 329] | 0.11 to 1
N#Cc1ccc(-c2ccc(-c3ccccc3)n2CC(=O)N=C(N)NCc2ccc(F)c(F)c2F)cc1 [Example 330] | 1.1 to 5
CC(C)c1ccc(-c2ccc(-c3ccccc3)n2CC(=O)N=C(N)NCc2ccc(F)c(F)c2F)cc1 [Example 331] | 1.1 to 5
CCCc1ccc(-c2ccc(-c3ccccc3)n2CC(=O)N=C(N)NCc2ccc(F)c(F)c2F)cc1 [Example 332] | 0.11 to 1
CCCCc1ccc(-c2ccc(-c3ccccc3)n2CC(=O)N=C(N)NCc2ccc(F)c(F)c2F)cc1 [Example 333] | 0.11 to 1
CCCCOc1ccc(-c2ccc(-c3ccccc3)n2CC(=O)N=C(N)NCc2ccc(F)c(F)c2F)cc1 [Example 334] | 0.11 to 1
NC(=NC(=O)Cn1c(-c2ccccc2)ccc1-c1ccc(C2CCCCC2)cc1)NCc1ccc(F)c(F)c1F [Example 336] | 0.11 to 1
NC(=NC(=O)Cn1c(-c2ccccc2)ccc1-c1ccc(Oc2ccccc2)cc1)NCc1ccc(F)c(F)c1F [Example 337] | 0.11 to 1
CC(=O)c1ccc(Oc2ccc(-c3ccc(-c4ccccc4)n3CC(=O)N=C(N)NCc3ccc(F)c(F)c3F)cc2)cc1 [Example 338] | 1.1 to 5
CCN/C(N)=N\C(=O)Cn1c(-c2ccccc2)ccc1C12CC3CC(CC(C3)C1)C2 [Example 390] | 0.11 to 1
CCCN/C(N)=N\C(=O)Cn1c(-c2ccccc2)ccc1C12CC3CC(CC(C3)C1)C2 [Example 391] | 0.11 to 1
CCCCCN/C(N)=N\C(=O)Cn1c(-c2ccccc2)ccc1C12CC3CC(CC(C3)C1)C2 [Example 392] | 1.1 to 5
N#CCCCNC(=N)NC(=O)Cn1c(-c2ccccc2)ccc1C12CC3CC(CC(C3)C1)C2 [Example 393] | 0.11 to 1
CC(=O)OCCNC(N)=NC(=O)Cn1c(-c2ccccc2)ccc1C12CC3CC(CC(C3)C1)C2 [Example 394] | 0.11 to 1
N/C(=N/C(=O)Cn1c(-c2ccccc2)ccc1C12CC3CC(CC(C3)C1)C2)NCCO [Example 396, 2-[2-(1-adamantyl)-5-phenyl-1H-pyrrol-1-yl]-N-{(1E)-amino[(2-hydroxyethyl)-amino]methylene}acetamide] | 0.11 to 1
N#CCCN/C(N)=N\C(=O)Cn1c(-c2ccccc2)ccc1C12CC3CC(CC(C3)C1)C2 [Example 397] | 0.11 to 1
N/C(=N\C(=O)Cn1c(-c2ccccc2)ccc1C12CC3CC(CC(C3)C1)C2)NCCCCO [Example 400, 2-[2-(1-Adamantyl)-5-phenyl-1H-pyrrol-1-yl]-N-{(1E)-amino[(4-hydroxybutyl)amino]-methylene}acetamide] | 0.11 to 1
NC(=NC(=O)Cn1c(-c2ccccc2)ccc1C12CC3CC(CC(C3)C1)C2)NCc1ccco1 [Example 401] | 1.1 to 5
NC(=NC(=O)Cn1c(-c2ccccc2)ccc1C12CC3CC(CC(C3)C1)C2)NCC1CCCO1 (stereo not drawn) [Example 402] | 0.11 to 1
CC(O)CNC(N)=NC(=O)Cn1c(-c2ccccc2)ccc1C12CC3CC(CC(C3)C1)C2 (stereo not drawn) [Example 404] | 0.11 to 1
CC(O)CNC(N)=NC(=O)Cn1c(-c2ccccc2)ccc1C12CC3CC(CC(C3)C1)C2 (stereo not drawn) [Example 405] | 0.11 to 1
N=C(NCC(O)CO)NC(=O)Cn1c(-c2ccccc2)ccc1C12CC3CC(CC(C3)C1)C2 (stereo not drawn) [Example 406] | 0.11 to 1
CC(C)CNC(N)=NC(=O)Cn1c(-c2ccccc2)ccc1C12CC3CC(CC(C3)C1)C2 [Example 407] | 1.1 to 5
NC(=NC(=O)Cn1c(-c2ccccc2)ccc1C12CC3CC(CC(C3)C1)C2)NCC(F)(F)F [Example 408] | 0.11 to 1
CCOC(=O)CCCNC(N)=NC(=O)Cn1c(-c2ccccc2)ccc1C12CC3CC(CC(C3)C1)C2 [Example 409] | 1.1 to 5
